This is an account of results in ChEMBL document CHEMBL4376850, “1-Benzylpyrrolidine-3-amine-based BuChE inhibitors with anti-aggregating, antioxidant and metal-chelating properties as multifunctional agents against Alzheimer's disease” (Eur J Med Chem, 2020).

The source made the active and inactive calls. No cut-off for these calls is given here. A value given as a limit tells only on which side of the number the result lay.

The target of assay [1] is Cholinesterase (Equus caballus, UniProt P81908). The assay can be described thus: Inhibition of equine BuChE.
Assay [2] in a line: Metal chelating activity assessed as Cu2+-compound complex formation at 50 uM after 30 mins by UV-Visible spectrophotometric method.
Assay [3] has as its target T1, Beta-secretase 1 (Homo sapiens, UniProt P56817). The assay can be described thus: Inhibition of BACE1 (unknown origin).
Assay [4] deals with Acetylcholinesterase (Electrophorus electricus) (UniProt O42275). The assay can be described thus: Inhibition of Electrophorus electricus AChE at 10 uM using acetylthiocholine iodide as substrate preincubated for 5 mins followed by substrate addition and measured after 5 mins by Ellman's method relative to control.
In assay [5] the target is Amyloid-beta precursor protein (Homo sapiens) (UniProt P05067). As to conditions: at 10 µM.
Description: Inhibition of amyloid beta (1 to 42) (unknown origin) aggregation at 10 uM expressed in Escherichia coli BL21 (DE3) incubated for 24 hrs by thioflavin T-based fluorometric assay relative to control
The target is the same in assay [6]. Description: Inhibition of HFIP-pretreated amyloid beta (1 to 42) (unknown origin) aggregation at 10 uM after 48 hrs measured every 3 mins by thioflavin T-based fluorometric assay relative to control.
Assay [7] addresses T1, Beta-secretase 1. Particulars: 50 uM.
Assay [8] addresses Cholinesterase (Equus caballus) (UniProt P81908). Description: Inhibition of equine serum BuChE at 10 uM using butyrylthiocholine chloride as substrate pre-incubated for 5 mins followed by substrate addition and measured after 5 mins by Ellman's method relative to control.
Assay [9] concerns the target Microtubule-associated protein tau (Homo sapiens) (UniProt P10636). Description: Inhibition of tau aggregation (unknown origin) at 10 uM expressed in Escherichia coli BL21 (DE3) incubated for 24 hrs by thioflavin T-based fluorometric assay relative to control.
Assay [10] addresses T1, Beta-secretase 1.
The nature of assay [11]: Antioxidant activity assessed as increase in total ferric ion reducing activity at 75 uM using FeCl3.H2O and TPTZ incubated for 60 mins by FRAP assay relative to control. The assay is classed as functional. More on the design: scale not given: the % may be the effect or the level left.
Assay [12] is described as follows: Antioxidant activity assessed as ABTS radical scavenging activity at 30 uM measured after 30 mins by spectrophotometric assay relative to control. Type of assay: functional.
Assay [13] can be described thus: Antioxidant activity assessed as increase in total ferric ion reducing activity at 30 uM using FeCl3.H2O and TPTZ incubated for 5 mins by FRAP assay relative to control. The assay is classed as functional. More on the design: scale not given: the % may be the effect or the level left.
Assay [14] can be described thus: Antioxidant activity assessed as increase in total ferric ion reducing activity at 150 uM using FeCl3.H2O and TPTZ incubated for 60 mins by FRAP assay relative to control. Type of assay: functional. Further details: scale not given: the % may be the effect or the level left.
Assay [15] is described as follows: Antioxidant activity assessed as ABTS radical scavenging activity at 75 uM measured after 5 mins by spectrophotometric assay relative to control. Type of assay: functional.
Assay [16] in a line: Antioxidant activity assessed as ABTS radical scavenging activity at 30 uM measured after 60 mins by spectrophotometric assay relative to control. Type of assay: functional.
A short description of assay [17]: Antioxidant activity assessed as ABTS radical scavenging activity at 75 uM measured after 30 mins by spectrophotometric assay relative to control. The assay is classed as functional.
A short description of assay [18]: Antioxidant activity assessed as ABTS radical scavenging activity at 30 uM measured after 5 mins by spectrophotometric assay relative to control. The assay is classed as functional.
A short description of assay [19]: Antioxidant activity assessed as increase in total ferric ion reducing activity at 150 uM using FeCl3.H2O and TPTZ incubated for 30 mins by FRAP assay relative to control. Type of assay: functional. Further details: scale not given: the % may be the effect or the level left.
A short description of assay [20]: Antioxidant activity assessed as increase in total ferric ion reducing activity at 75 uM using FeCl3.H2O and TPTZ incubated for 30 mins by FRAP assay relative to control. More on the design: scale not given: the % may be the effect or the level left. The assay is classed as functional.
Assay [21] is described as follows: Antioxidant activity assessed as ABTS radical scavenging activity at 150 uM measured after 5 mins by spectrophotometric assay relative to control. Type of assay: functional.
The nature of assay [22]: Antioxidant activity assessed as increase in total ferric ion reducing activity at 75 uM using FeCl3.H2O and TPTZ incubated for 5 mins by FRAP assay relative to control. More on the design: scale not given: the % may be the effect or the level left. The assay is classed as functional.
Assay [23] can be described thus: Antioxidant activity assessed as ABTS radical scavenging activity at 150 uM measured after 60 mins by spectrophotometric assay relative to control. The assay is classed as functional.
A short description of assay [24]: Antioxidant activity assessed as increase in total ferric ion reducing activity at 30 uM using FeCl3.H2O and TPTZ incubated for 60 mins by FRAP assay relative to control. The assay is classed as functional. Further details: scale not given: the % may be the effect or the level left.
The nature of assay [25]: Antioxidant activity assessed as increase in total ferric ion reducing activity at 150 uM using FeCl3.H2O and TPTZ incubated for 5 mins by FRAP assay relative to control. More on the design: scale not given: the % may be the effect or the level left. The assay is classed as functional.
Assay [26] in a line: Antioxidant activity assessed as ABTS radical scavenging activity at 75 uM measured after 60 mins by spectrophotometric assay relative to control. Type of assay: functional.
Assay [27] is described as follows: Antioxidant activity assessed as ABTS radical scavenging activity at 150 uM measured after 30 mins by spectrophotometric assay relative to control. The assay is classed as functional.
Assay [28] can be described thus: Antioxidant activity assessed as increase in total ferric ion reducing activity at 30 uM using FeCl3.H2O and TPTZ incubated for 30 mins by FRAP assay relative to control. Type of assay: functional. More on the design: scale not given: the % may be the effect or the level left.

Chain of Cholinesterase (Equus caballus) (P81908 whole entry): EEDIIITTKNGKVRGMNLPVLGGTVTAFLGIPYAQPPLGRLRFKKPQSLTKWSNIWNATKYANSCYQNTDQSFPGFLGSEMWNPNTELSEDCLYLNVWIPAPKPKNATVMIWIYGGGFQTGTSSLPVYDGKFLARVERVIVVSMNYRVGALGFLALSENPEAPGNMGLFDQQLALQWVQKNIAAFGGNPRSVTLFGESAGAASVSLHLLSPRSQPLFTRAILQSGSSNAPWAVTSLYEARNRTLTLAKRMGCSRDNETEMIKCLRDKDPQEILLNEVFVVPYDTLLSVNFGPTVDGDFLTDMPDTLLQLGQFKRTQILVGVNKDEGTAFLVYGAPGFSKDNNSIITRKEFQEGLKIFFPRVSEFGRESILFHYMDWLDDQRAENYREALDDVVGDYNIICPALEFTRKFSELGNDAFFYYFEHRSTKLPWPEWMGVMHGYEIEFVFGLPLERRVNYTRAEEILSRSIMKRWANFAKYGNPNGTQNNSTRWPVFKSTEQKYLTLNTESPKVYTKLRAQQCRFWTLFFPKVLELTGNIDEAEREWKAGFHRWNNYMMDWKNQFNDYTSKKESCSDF
Chain of Microtubule-associated protein tau (Homo sapiens) (P10636 whole entry): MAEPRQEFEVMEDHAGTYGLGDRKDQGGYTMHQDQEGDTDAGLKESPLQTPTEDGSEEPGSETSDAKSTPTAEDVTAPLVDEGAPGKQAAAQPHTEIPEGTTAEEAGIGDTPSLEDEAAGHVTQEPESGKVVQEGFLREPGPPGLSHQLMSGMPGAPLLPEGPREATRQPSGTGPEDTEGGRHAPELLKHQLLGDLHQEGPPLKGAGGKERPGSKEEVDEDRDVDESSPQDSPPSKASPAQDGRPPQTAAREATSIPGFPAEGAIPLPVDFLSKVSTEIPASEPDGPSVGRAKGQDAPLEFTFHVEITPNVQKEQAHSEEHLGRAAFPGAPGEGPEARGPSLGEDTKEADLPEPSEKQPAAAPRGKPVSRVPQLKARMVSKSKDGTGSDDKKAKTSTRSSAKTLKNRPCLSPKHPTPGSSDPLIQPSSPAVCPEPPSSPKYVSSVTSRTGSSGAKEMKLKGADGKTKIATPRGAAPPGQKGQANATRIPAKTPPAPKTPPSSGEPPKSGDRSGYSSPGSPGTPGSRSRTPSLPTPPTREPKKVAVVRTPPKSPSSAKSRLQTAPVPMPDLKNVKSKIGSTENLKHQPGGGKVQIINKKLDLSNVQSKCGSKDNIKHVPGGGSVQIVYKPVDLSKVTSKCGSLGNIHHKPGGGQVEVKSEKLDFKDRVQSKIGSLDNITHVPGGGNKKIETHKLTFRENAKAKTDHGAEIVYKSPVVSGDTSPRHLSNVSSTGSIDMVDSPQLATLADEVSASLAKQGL
Chain of Acetylcholinesterase (Electrophorus electricus) (O42275 24-633 limits assumed): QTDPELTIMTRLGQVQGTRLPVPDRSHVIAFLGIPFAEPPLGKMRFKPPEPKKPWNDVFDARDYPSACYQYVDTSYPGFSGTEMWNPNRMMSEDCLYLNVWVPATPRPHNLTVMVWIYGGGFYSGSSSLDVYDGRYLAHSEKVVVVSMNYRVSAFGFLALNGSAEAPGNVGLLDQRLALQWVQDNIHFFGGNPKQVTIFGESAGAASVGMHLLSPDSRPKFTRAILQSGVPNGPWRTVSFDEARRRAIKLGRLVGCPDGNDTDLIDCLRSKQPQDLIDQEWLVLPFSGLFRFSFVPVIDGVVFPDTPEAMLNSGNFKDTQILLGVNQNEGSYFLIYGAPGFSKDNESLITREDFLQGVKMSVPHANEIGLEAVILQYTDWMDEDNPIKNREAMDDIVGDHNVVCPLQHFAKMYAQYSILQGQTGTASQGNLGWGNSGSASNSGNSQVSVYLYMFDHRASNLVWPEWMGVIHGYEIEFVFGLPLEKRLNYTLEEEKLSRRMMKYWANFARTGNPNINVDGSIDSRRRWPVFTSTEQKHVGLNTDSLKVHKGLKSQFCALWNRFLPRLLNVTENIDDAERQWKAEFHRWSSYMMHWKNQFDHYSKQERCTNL
Chain of Amyloid-beta precursor protein (Homo sapiens) (P05067 whole entry): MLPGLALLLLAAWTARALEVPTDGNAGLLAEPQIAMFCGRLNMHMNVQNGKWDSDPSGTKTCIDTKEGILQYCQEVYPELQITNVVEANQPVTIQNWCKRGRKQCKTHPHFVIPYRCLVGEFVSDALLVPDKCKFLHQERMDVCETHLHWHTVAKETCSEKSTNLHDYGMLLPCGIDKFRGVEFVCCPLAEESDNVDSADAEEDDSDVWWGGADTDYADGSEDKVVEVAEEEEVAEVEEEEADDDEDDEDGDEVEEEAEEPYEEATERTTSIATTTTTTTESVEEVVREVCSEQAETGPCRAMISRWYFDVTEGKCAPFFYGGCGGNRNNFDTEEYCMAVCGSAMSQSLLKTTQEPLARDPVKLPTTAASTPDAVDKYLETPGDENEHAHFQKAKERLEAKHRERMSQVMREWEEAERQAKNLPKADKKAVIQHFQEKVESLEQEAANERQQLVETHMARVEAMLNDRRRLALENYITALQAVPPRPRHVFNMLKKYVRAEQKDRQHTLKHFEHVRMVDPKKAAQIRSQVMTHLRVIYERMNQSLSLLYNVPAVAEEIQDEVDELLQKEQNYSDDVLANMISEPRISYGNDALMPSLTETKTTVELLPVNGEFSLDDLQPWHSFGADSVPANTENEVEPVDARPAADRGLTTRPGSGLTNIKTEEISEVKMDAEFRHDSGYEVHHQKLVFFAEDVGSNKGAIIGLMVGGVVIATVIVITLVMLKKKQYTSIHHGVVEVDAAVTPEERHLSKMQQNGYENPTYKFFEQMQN
T1 sequence (P56817 whole entry): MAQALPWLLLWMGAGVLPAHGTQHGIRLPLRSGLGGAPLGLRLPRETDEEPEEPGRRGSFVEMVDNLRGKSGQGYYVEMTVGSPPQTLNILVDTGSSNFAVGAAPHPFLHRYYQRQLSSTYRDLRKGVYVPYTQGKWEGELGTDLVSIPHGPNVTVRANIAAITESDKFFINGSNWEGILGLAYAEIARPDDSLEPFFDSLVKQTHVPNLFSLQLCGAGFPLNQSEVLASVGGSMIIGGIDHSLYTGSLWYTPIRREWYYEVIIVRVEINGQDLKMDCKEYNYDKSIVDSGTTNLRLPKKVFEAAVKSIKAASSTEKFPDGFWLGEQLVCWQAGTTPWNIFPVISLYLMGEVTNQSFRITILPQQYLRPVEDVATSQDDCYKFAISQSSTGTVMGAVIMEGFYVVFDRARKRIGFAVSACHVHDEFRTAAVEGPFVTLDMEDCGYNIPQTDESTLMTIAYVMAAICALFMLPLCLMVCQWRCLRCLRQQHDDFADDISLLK
Chain of Cholinesterase (P81908 whole entry): as the sequence (P81908 whole entry) above

On to `Cc1c(OCc2ccccc2)cccc1N1CCN(CC(=O)NC2CCN(Cc3ccccc3)C2)CC1` (stereo unspecified), for which the values for the IC50 in [1] and in [3] were 76 µM and 33 µM, respectively. Moreover, the outcome in assay [2] was Active.

For `O=C(CN1CCC(C(c2ccccc2)c2ccccc2)CC1)NC1CCN(Cc2ccccc2)C1` (stereo unspecified), the inhibition was under 10% in assay [4]; 53.3% in assay [5]; 35.3% in [6]; 52.2% in assay [7]; 24.6% in assay [8]; 64.3% in assay [9]. This molecule gave an IC50 in assay [10] of 55.2 µM.

For `c1ccc(CN2CCC(NCCN3CCC(C(c4ccccc4)c4ccccc4)CC3)C2)cc1` (stereo unspecified), the inhibition in [4] was found to be 25.2%; in assay [5], 31.7%; in [7] it was 54.3%; in assay [8] it was 44.2%; in assay [9], 60.4%. In addition, inhibition in [10] was half-maximal at 49.8 µM (IC50).

Take `c1ccc(CN2CCC(NCCN3CCN(C(c4ccccc4)c4ccccc4)CC3)C2)cc1` (stereo unspecified): the Activity in assay [11] was 12%; in assay [12] it was 41%; in [13], 4%; in [14], 25%; in assay [15] it was 29%; in assay [16] it was 47%. The Activity is 52% in assay [17]; 22% in [18]; 21% in assay [19]; 10% in assay [20]; 51% in [21]; 4% in assay [22]. In addition, the Activity in [23] came to 84%; in [24], 11%; in assay [25] it was 19%; in assay [26], 59%; in assay [27], 77%; in [28] it was 8%. The inhibition in assay [4] worked out at 27.6%; in [5], 31.6%; in assay [6], 27.7%; in assay [7] it was 34.2%; in assay [8] it was 46.2%; in [9], 64%. Further, the result in assay [2] was Active.
